# In patent publication US9593108B2, “Compounds and methods for antiviral treatment” (PTC Therapeutics, Inc., priority 2009, dated 2017):
# What was measured:
# [1] = tested on: HCV replicon RNA (GenBank Accession No. AJ242654); experiment: HCV Replicon Assay (replicon RNA reduction and/or Fluc reporter signal); format: cell-based, Hepatitis C virus; conditions: Hepatitis C virus, 72 h, replicon-containing cells cultured with test compound for up to 3 days
# In short: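 Bicistronic replicon-containing cells cultured with compound for up to 3 days, with interferon as positive control. Inhibition quantified by replicon RNA reduction and/or Fluc reporter signal; IC50 values generally derived from replicon RNA reduction.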
Compound,IC50 [1] [nM],melting point [°C]
"Cc1ccc2c(C#N)c(-c3ccc(S(=O)(=O)NC(CF)CF)cc3)n(C3CCC3)c2n1 [Cpd 145, 4-(3-cyano-1-cyclobutyl-6-methyl-1H-pyrrolo[2,3-b]pyridin-2-yl)-N-(1,3-difluoropropan-2-yl)benzenesulfonamide]",< 500,182 to 193
"Cc1ccc2c(C#N)c(-c3ccc(S(=O)(=O)NC(CF)CF)cn3)n(C3CCC3)c2n1 [Cpd 146, 6-(3-cyano-1-cyclobutyl-6-methyl-1H-pyrrolo[2,3-b]pyridin-2-yl)-N-(1,3-difluoropropan-2-yl)pyridine-3-sulfonamide]",< 500,180 to 188
"Cc1ccc2c(C#N)c(-c3ncc(S(=O)(=O)NC(CF)CF)cn3)n(C3CCC3)c2n1 [Cpd 147, 2-(3-cyano-1-cyclobutyl-6-methyl-1H-pyrrolo[2,3-b]pyridin-2-yl)-N-(1,3-difluoropropan-2-yl)pyrimidine-5-sulfonamide]",< 500,211 to 217
"Cc1ccc2c(C#N)c(-c3ccc(S(=O)(=O)NC4CCC4)cn3)n(C3CCC3)c2n1 [Cpd 148, 6-(3-cyano-1-cyclobutyl-6-methyl-1H-pyrrolo[2,3-b]pyridin-2-yl)-N-cyclobutylpyridine-3-sulfonamide]",< 500,151 to 160
"C[C@H](NS(=O)(=O)c1ccc(-c2c(C#N)c3ccc(C4CC4)nc3n2C2CCC2)nc1)C(F)(F)F [Cpd 151, 6-(3-cyano-1-cyclobutyl-6-cyclopropyl-1H-pyrrolo[2,3-b]pyridin-2-yl)-N-[(2S)-1,1,1-trifluoropropan-2-yl]pyridine-3-sulfonamide]",< 500,170 to 176
"C[C@@H](NS(=O)(=O)c1ccc(-c2c(C#N)c3ccc(C4CC4)nc3n2C2CCC2)nc1)C(F)(F)F [Cpd 152, 6-(3-cyano-1-cyclobutyl-6-cyclopropyl-1H-pyrrolo[2,3-b]pyridin-2-yl)-N-[(2R)-1,1,1-trifluoropropan-2-yl]pyridine-3-sulfonamide]",< 500,170 to 176
"C[C@@H](NS(=O)(=O)c1cnc(-c2c(C#N)c3ccc(C4CC4)nc3n2C2CCC2)nc1)C(F)(F)F [Cpd 154, 2-(3-cyano-1-cyclobutyl-6-cyclopropyl-1H-pyrrolo[2,3-b]pyridin-2-yl)-N-[(2R)-1,1,1-trifluoropropan-2-yl]pyrimidine-5-sulfonamide]",< 500,244 to 249
"CCc1cnc2c(c1)c(C#N)c(-c1ccc(S(=O)(=O)N[C@@H](C)C(F)(F)F)cc1)n2C1CCC1 [Cpd 155, 4-(3-cyano-1-cyclobutyl-5-ethyl-1H-pyrrolo[2,3-b]pyridin-2-yl)-N-[(2S)-1,1,1-trifluoropropan-2-yl]benzenesulfonamide]",< 500,194 to 201
"CCc1cnc2c(c1)c(C#N)c(-c1ccc(S(=O)(=O)N[C@H](C)C(F)(F)F)cc1)n2C1CCC1 [Cpd 156, 4-(3-cyano-1-cyclobutyl-5-ethyl-1H-pyrrolo[2,3-b]pyridin-2-yl)-N-[(2R)-1,1,1-trifluoropropan-2-yl]benzenesulfonamide]",500 to 2000,194 to 201
"C[C@H](NS(=O)(=O)c1ccc(-c2c(C#N)c3ccc(Cl)nc3n2C2CCC2)nc1)C(F)(F)F [Cpd 161, 6-(6-chloro-3-cyano-1-cyclobutyl-1H-pyrrolo[2,3-b]pyridin-2-yl)-N-[(2S)-1,1,1-trifluoropropan-2-yl]pyridine-3-sulfonamide]",< 500,172 to 178
"C[C@@H](NS(=O)(=O)c1ccc(-c2c(C#N)c3ccc(Cl)nc3n2C2CCC2)nc1)C(F)(F)F [Cpd 162, 6-(6-chloro-3-cyano-1-cyclobutyl-1H-pyrrolo[2,3-b]pyridin-2-yl)-N-[(2R)-1,1,1-trifluoropropan-2-yl]pyridine-3-sulfonamide]",< 500,172 to 178
"Cc1ncc2c(C#N)c(-c3ccc(S(=O)(=O)N[C@@H](C)C(F)(F)F)cn3)n(C3CCCC3)c2n1 [Cpd 163, 6-(5-cyano-7-cyclopentyl-2-methyl-7H-pyrrolo[2,3-d]pyrimidin-6-yl)-N-[(2S)-1,1,1-trifluoropropan-2-yl]pyridine-3-sulfonamide]",500 to 2000,212 to 215
"Cc1ncc2c(C#N)c(-c3ccc(S(=O)(=O)N[C@@H](C)C(F)(F)F)cc3)n(C3CCCC3)c2n1 [Cpd 164, 4-(5-cyano-7-cyclopentyl-2-methyl-7H-pyrrolo[2,3-d]pyrimidin-6-yl)-N-[(2S)-1,1,1-trifluoropropan-2-yl]benzenesulfonamide]",500 to 2000,202 to 204
"Cc1cc2c(C#N)c(-c3ccc(S(=O)(=O)N[C@@H](C)C(F)(F)F)cn3)n(C3CCC3)c2cn1 [Cpd 165, 6-(3-cyano-1-cyclobutyl-5-methyl-1H-pyrrolo[2,3-c]pyridin-2-yl)-N-[(2S)-1,1,1-trifluoropropan-2-yl]pyridine-3-sulfonamide]",500 to 2000,185 to 188
"Cc1cc2c(C#N)c(-c3ccc(S(=O)(=O)N[C@H](C)C(F)(F)F)cn3)n(C3CCC3)c2cn1 [Cpd 166, 6-(3-cyano-1-cyclobutyl-5-methyl-1H-pyrrolo[2,3-c]pyridin-2-yl)-N-[(2R)-1,1,1-trifluoropropan-2-yl]pyridine-3-sulfonamide]",< 500,195 to 198
"Cc1cc2c(C#N)c(-c3ccc(S(=O)(=O)N[C@@H](C)C(F)(F)F)cc3)n(C3CCC3)c2cn1 [Cpd 167, 4-(3-cyano-1-cyclobutyl-5-methyl-1H-pyrrolo[2,3-c]pyridin-2-yl)-N-[(2S)-1,1,1-trifluoropropan-2-yl]benzenesulfonamide]",< 500,188 to 191
"Cc1cc2c(C#N)c(-c3ccc(S(=O)(=O)NC4(C)CC4)cn3)n(C3CCC3)c2cn1 [Cpd 168, 6-(3-cyano-1-cyclobutyl-5-methyl-1H-pyrrolo[2,3-c]pyridine-2-yl)-N-(1-methylcyclopropyl)pyridine-3-sulfonamide]",< 500,185 to 190
"C[C@H](NS(=O)(=O)c1ccc(-c2c(C#N)c3cc(F)cnc3n2C2CCC2)nc1)C(F)(F)F [Cpd 169, 6-(3-cyano-1-cyclobutyl-5-fluoro-1H-pyrrolo[2,3-b]pyridin-2-yl)-N-[(2S)-1,1,1-trifluoropropan-2-yl]pyridine-3-sulfonamide]",< 500,172 to 174
"Cc1cnc2c(C#N)c(-c3ccc(S(=O)(=O)N[C@@H](C)C(F)(F)F)cn3)n(C3CCCC3)c2c1 [Cpd 170, 6-(3-cyano-1-cyclopentyl-6-methyl-1H-pyrrolo[3,2-b]pyridin-2-yl)-N-[(2S)-1,1,1-trifluoropropan-2-yl]pyridine-3-sulfonamide]",< 500,210 to 212
"Cc1cnc2c(C#N)c(-c3ccc(S(=O)(=O)N[C@H](C)C(F)(F)F)cn3)n(C3CCCC3)c2c1 [Cpd 171, 6-(3-cyano-1-cyclopentyl-6-methyl-1H-pyrrolo[3,2-b]pyridin-2-yl)-N-[(2R)-1,1,1-trifluoropropan-2-yl]pyridine-3-sulfonamide]",< 500,215 to 217
"Cc1cnc2c(C#N)c(-c3ccc(S(=O)(=O)NC4(C(F)(F)F)CC4)cn3)n(C3CCCC3)c2c1 [Cpd 172, 6-(3-cyano-1-cyclopentyl-6-methyl-1H-pyrrolo[3,2-b]pyridin-2-yl)-N-[1-(trifluoromethyl)cyclopropyl]pyridine-3-sulfonamide]",< 500,249 to 251
"Cc1cnc2c(C#N)c(-c3ccc(S(=O)(=O)NC(C)(C)C(F)(F)F)cn3)n(C3CCCC3)c2c1 [Cpd 173, 6-(3-cyano-1-cyclopentyl-6-methyl-1H-pyrrolo[3,2-b]pyridin-2-yl)-N-(1,1,1-trifluoro-2-methylpropan-2-yl)pyridine-3-sulfonamide]",< 500,265 to 267
"Cc1cnc2c(C#N)c(-c3ccc(S(=O)(=O)NC4(C)CC4)cn3)n(C3CCCC3)c2c1 [Cpd 174, 6-(3-cyano-1-cyclopentyl-6-methyl-1H-pyrrolo[3,2-b]pyridin-2-yl)-N-(1-methylcyclopropyl)pyridine-3-sulfonamide]",< 500,215 to 217
"Cc1cnc2c(C#N)c(-c3ccc(S(=O)(=O)NC(C)(C)C)cn3)n(C3CCCC3)c2c1 [Cpd 175, N-tert-butyl-6-(3-cyano-1-cyclopentyl-6-methyl-1H-pyrrolo[3,2-b]pyridin-2-yl)pyridine-3-sulfonamide]",< 500,267 to 269
"Cc1cnc2c(C#N)c(-c3ccc(S(=O)(=O)NC(CF)CF)cn3)n(C3CCCC3)c2c1 [Cpd 176, 6-(3-cyano-1-cyclopentyl-6-methyl-1H-pyrrolo[3,2-b]pyridin-2-yl)-N-(1,3-difluoropropan-2-yl)pyridine-3-sulfonamide]",< 500,248 to 249
"Cc1cnc2c(C#N)c(-c3ncc(S(=O)(=O)NC(CF)CF)cn3)n(C3CCCC3)c2c1 [Cpd 177, 2-(3-cyano-1-cyclopentyl-6-methyl-1H-pyrrolo[3,2-b]pyridin-2-yl)-N-(1,3-difluoropropan-2-yl)pyrimidine-5-sulfonamide]",< 500,256 to 258
"Cc1cnc2c(C#N)c(-c3ncc(S(=O)(=O)NC(C)C)cn3)n(C3CCCC3)c2c1 [Cpd 178, 2-(3-cyano-1-cyclopentyl-6-methyl-1H-pyrrolo[3,2-b]pyridin-2-yl)-N-(propan-2-yl)pyrimidine-5-sulfonamide]",< 500,263 to 265
"Cc1cnc2c(C#N)c(-c3ncc(S(=O)(=O)N[C@@H](C)C(F)(F)F)cn3)n(C3CCCC3)c2c1 [Cpd 179, 2-(3-cyano-1-cyclopentyl-6-methyl-1H-pyrrolo[3,2-b]pyridin-2-yl)-N-[(2S)-1,1,1-trifluoropropan-2-yl]pyrimidine-5-sulfonamide]",< 500,262 to 264
